From ChEMBL document CHEMBL1140446, “Designed multiple ligands. An emerging drug discovery paradigm” (J Med Chem, 2005)

Key:
[1] = molecular target: Endothelin-converting enzyme 1 (Homo sapiens, UniProt P42892); assay: Inhibition constant against endothelin converting enzyme 1
Neprilysin [2] = molecular target: T1, Neprilysin (Homo sapiens, UniProt P08473); assay: Inhibition constant against neutral endopeptidase
[3] = molecular target: T2, Angiotensin-converting enzyme (Homo sapiens, UniProt P12821); assay: Inhibition constant against angiotensin I converting enzyme
Substance-K receptor = molecular target: T3, Substance-K receptor (Homo sapiens, UniProt P21452); assay: Binding affinity towards tachykinin receptor 2
T3 sequence (P21452 whole entry): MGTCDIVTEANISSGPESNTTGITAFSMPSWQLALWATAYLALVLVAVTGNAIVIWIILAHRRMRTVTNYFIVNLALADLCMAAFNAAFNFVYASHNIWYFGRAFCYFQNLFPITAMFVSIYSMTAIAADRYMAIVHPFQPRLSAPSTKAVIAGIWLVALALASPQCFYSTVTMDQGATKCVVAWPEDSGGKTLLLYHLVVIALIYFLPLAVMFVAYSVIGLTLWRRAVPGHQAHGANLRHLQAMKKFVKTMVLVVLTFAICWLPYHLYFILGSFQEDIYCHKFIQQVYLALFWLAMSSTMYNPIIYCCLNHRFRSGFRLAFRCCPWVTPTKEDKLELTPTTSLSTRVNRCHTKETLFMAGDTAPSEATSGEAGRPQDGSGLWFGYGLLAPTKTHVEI

Substance-P receptor [4] = molecular target: T4, Substance-P receptor (Homo sapiens, UniProt P25103)
Description: Binding affinity towards tachykinin receptor 1

[5] = molecular target: T5, Gastrin/cholecystokinin type B receptor (Homo sapiens, UniProt P32239); assay: Inhibitory concentration against gastrin receptor
Histamine H2 receptor = Histamine H2 receptor (Homo sapiens, UniProt P25021); assay: Negative logarithm of the drug concentration against H2 histamine receptor; details: read-out: pA2 (converted)
[6] = molecular target: T5, Gastrin/cholecystokinin type B receptor; assay: Inhibitory concentration against Cholecystokinin B receptor
Substance-P receptor [7] = molecular target: T4, Substance-P receptor; remark: listed apart in the source
Description: Inhibitory concentration against neurokinin NK1 receptor

Histamine H1 receptor [8] = molecular target: T6, Histamine H1 receptor (Homo sapiens, UniProt P35367)
Description: Inhibitory concentration against histamine H1 receptor

[9] = molecular target: T7, Sodium-dependent serotonin transporter (Homo sapiens, UniProt P31645); assay: Negative logarithm causing 50% receptor occupancy against serotonin transporter
[10] = molecular target: Beta-2 adrenergic receptor (Homo sapiens, UniProt P07550); assay: Negative logarithm causing 50% receptor occupancy against beta-2 adrenergic receptor
[11] = molecular target: Cysteinyl leukotriene receptor 1 (Cavia porcellus, UniProt Q2NNR5); assay: Inhibitory concentration against LTD4-induced contraction of guinea pig ileum at 10 uM concentration; format: tissue-based
Procathepsin L = Procathepsin L (Homo sapiens, UniProt P07711); assay: Inhibitory concentration against cathepsin L
D(2) dopamine receptor [12] = molecular target: T8, D(2) dopamine receptor (Homo sapiens, UniProt P14416)
Description: Inhibitory concentration against dopamine receptor D2

[13] = molecular target: 5-hydroxytryptamine receptor 2A (Homo sapiens, UniProt P28223)
Description: Inhibitory concentration against 5-hydroxytryptamine 2 receptor

[14] = molecular target: 5-hydroxytryptamine receptor 1B (Homo sapiens, UniProt P28222)
Description: Inhibition constant against 5-HT 1B receptor

[15] = molecular target: T7, Sodium-dependent serotonin transporter
Description: Inhibitory concentration against serotonin transporter

[16] = molecular target: T9, Adrenergic receptor alpha-1 (Homo sapiens, UniProt P35348+P25100+P35368); assay: Inhibition constant against alpha adrenergic receptor; format: protein assay
T9 sequence (P35348 whole entry): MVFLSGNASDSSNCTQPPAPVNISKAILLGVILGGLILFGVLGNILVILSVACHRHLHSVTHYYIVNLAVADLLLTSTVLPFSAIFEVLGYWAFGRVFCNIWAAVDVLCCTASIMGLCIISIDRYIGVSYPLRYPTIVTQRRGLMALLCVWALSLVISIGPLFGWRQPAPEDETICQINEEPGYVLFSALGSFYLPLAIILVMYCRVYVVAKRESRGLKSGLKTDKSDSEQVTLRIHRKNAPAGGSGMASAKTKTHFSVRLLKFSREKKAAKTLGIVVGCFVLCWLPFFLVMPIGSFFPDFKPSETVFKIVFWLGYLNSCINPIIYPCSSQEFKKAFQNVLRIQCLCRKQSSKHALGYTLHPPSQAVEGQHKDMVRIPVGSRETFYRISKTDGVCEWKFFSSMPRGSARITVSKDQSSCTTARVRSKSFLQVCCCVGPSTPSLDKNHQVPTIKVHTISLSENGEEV
T9 sequence (P25100 whole entry): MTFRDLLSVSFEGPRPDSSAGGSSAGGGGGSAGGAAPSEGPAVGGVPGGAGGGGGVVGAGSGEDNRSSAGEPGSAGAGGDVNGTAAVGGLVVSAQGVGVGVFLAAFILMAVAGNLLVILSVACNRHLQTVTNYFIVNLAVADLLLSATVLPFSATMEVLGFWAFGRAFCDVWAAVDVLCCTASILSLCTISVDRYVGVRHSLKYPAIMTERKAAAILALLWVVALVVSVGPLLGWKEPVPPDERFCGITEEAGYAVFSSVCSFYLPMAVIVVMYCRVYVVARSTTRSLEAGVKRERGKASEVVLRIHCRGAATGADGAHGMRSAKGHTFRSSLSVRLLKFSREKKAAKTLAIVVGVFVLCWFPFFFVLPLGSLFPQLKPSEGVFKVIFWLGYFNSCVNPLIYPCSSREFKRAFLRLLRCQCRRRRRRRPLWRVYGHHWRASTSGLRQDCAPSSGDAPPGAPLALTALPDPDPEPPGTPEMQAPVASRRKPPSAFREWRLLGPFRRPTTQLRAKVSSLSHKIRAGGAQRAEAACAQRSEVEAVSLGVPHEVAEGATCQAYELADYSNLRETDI
T9 sequence (P35368 whole entry): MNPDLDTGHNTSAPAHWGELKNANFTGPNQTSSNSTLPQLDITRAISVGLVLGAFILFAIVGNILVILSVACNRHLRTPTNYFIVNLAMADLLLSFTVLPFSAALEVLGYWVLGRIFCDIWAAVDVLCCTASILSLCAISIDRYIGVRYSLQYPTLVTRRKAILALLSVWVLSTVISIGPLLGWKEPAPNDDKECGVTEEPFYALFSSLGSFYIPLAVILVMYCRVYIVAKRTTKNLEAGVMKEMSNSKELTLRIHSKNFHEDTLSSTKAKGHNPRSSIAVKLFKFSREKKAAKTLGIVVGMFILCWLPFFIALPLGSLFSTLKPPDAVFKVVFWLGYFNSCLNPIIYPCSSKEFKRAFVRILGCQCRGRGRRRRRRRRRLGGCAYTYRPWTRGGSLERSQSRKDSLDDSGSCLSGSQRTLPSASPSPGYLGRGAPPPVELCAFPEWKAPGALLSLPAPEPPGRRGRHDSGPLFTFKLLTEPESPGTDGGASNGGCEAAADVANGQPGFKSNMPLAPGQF

[17] = molecular target: 5-hydroxytryptamine receptor 1D (Homo sapiens, UniProt P28221); assay: Inhibition constant against 5-hydroxytryptamine 1D receptor
D(2) dopamine receptor [18] = molecular target: T8, D(2) dopamine receptor; remark: listed apart in the source
Description: Inhibition constant against dopamine receptor D2

[19] = molecular target: Sodium-dependent dopamine transporter (Homo sapiens, UniProt Q01959)
Description: Inhibitory concentration against dopamine transporter

[20] = molecular target: Tyrosine-protein kinase ABL1 (Homo sapiens, UniProt P00519); assay: Inhibitory concentration against v-Abl tyrosine kinase
Histamine H1 receptor [21] = molecular target: T6, Histamine H1 receptor; remark: listed apart in the source
Description: Inhibition constant against histamine H1 receptor

Histamine H3 receptor = Histamine H3 receptor (Homo sapiens, UniProt Q9Y5N1); assay: Inhibition constant against histamine H3 receptor
[22] = molecular target: 5-hydroxytryptamine receptor 2A (Rattus norvegicus, UniProt P14842); assay: Inhibition constant against 5-Hydroxytryptamine 2 receptor in olfactory bulbectomized rat
[23] = molecular target: T10, 5-hydroxytryptamine receptor 1A (Homo sapiens, UniProt P08908)
T10 sequence (P08908 whole entry): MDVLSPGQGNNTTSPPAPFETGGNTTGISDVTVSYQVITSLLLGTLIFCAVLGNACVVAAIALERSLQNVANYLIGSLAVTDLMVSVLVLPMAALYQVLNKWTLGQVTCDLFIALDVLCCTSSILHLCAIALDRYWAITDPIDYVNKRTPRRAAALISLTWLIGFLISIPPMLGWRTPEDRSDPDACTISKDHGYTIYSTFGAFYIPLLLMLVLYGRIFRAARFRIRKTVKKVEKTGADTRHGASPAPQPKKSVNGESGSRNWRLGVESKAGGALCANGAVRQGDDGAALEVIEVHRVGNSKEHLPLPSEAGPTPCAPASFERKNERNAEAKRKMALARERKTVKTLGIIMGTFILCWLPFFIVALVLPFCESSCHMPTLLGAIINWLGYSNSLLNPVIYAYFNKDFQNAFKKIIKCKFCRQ
Description: Inhibition constant against 5-hydroxytryptamine 1A receptor

[24] = molecular target: Platelet-activating factor receptor (Homo sapiens, UniProt P25105)
Description: Inhibitory concentration against platelet activating factor receptor

Substance-P receptor [25] = molecular target: T4, Substance-P receptor; assay: Negative logarithm causing 50% receptor occupancy against tachykinin receptor 1
Neprilysin [26] = molecular target: T1, Neprilysin
Description: Inhibitory concentration against neutral endopeptidase

[27] = molecular target: T2, Angiotensin-converting enzyme; assay: Inhibitory concentration against angiotensin I converting enzyme
[28] = molecular target: T9, Adrenergic receptor alpha-1
Description: Inhibitory concentration against alpha adrenergic receptor

[29] = molecular target: T10, 5-hydroxytryptamine receptor 1A; assay: Inhibitory concentration against 5-hydroxytryptamine 1A receptor
Histamine H1 receptor [30] = molecular target: T6, Histamine H1 receptor; remark: listed apart in the source
Description: Dissociation constant against histamine H1 receptor

Acetylcholinesterase = Acetylcholinesterase (Homo sapiens, UniProt P22303)
Description: Inhibitory concentration against acetylcholinesterase

[31] = molecular target: T7, Sodium-dependent serotonin transporter; remark: listed apart in the source
Description: Inhibition constant against serotonin transporter

[32] = molecular target: Adrenergic receptor alpha-1 (Homo sapiens) (UniProt P35348+P25100+P35368); assay: Inhibition constant against alpha adrenergic receptor at 0.1 uM concentration; format: protein assay
[33] = Oral bioavailability; format: ADME, organism-based; details: eutheria, in vivo

T2 sequence (P12821 whole entry): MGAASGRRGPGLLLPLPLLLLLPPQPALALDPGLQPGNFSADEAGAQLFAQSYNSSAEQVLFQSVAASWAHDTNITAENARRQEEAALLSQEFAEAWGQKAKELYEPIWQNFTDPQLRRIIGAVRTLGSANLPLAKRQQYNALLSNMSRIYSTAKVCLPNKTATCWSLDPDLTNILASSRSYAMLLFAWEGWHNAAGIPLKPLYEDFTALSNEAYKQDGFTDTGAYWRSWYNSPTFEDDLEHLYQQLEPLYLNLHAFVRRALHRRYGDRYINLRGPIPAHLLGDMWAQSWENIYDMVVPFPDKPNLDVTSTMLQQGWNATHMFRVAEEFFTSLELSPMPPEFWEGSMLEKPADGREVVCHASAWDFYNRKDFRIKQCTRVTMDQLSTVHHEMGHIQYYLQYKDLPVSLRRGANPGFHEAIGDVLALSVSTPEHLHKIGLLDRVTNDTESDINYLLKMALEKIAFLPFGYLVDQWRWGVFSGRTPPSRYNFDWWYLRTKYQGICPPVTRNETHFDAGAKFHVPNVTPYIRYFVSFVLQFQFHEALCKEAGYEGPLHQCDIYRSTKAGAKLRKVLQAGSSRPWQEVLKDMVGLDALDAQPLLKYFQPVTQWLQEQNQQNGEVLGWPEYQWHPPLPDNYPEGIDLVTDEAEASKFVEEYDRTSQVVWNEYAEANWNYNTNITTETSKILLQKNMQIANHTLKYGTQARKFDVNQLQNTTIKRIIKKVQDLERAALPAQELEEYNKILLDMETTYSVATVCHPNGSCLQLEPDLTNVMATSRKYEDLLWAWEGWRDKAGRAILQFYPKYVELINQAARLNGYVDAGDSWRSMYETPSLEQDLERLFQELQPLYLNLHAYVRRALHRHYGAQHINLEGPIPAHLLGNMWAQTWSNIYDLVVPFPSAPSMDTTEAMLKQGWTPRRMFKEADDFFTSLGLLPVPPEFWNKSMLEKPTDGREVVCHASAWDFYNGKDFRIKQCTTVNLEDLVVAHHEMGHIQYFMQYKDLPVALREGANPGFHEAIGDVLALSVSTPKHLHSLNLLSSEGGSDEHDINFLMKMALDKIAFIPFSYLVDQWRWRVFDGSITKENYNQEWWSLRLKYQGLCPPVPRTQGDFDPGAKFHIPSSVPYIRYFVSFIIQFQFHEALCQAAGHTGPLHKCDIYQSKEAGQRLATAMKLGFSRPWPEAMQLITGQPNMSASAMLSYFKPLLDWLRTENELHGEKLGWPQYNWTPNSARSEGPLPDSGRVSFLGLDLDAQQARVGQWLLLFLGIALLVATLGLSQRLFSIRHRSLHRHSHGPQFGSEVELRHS
T1 sequence (P08473 whole entry): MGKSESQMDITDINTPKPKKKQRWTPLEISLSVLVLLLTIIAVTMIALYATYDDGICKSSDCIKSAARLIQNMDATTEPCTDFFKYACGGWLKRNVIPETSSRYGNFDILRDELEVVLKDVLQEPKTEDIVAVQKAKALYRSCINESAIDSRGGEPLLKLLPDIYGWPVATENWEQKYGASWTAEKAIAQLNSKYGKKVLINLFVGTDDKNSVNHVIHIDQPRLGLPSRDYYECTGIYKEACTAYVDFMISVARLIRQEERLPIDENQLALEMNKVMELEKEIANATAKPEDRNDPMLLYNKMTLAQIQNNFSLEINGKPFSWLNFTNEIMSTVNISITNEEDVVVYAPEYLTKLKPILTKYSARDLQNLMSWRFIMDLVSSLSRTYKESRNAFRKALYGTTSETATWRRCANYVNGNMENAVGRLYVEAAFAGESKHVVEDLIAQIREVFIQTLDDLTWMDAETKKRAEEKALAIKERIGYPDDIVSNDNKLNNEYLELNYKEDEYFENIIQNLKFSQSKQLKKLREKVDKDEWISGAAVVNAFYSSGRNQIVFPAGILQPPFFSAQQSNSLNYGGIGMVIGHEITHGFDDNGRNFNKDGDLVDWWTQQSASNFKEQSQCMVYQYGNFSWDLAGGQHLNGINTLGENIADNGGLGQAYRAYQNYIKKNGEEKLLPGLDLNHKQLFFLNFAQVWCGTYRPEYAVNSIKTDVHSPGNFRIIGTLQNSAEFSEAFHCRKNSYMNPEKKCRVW
T7 sequence (P31645 whole entry): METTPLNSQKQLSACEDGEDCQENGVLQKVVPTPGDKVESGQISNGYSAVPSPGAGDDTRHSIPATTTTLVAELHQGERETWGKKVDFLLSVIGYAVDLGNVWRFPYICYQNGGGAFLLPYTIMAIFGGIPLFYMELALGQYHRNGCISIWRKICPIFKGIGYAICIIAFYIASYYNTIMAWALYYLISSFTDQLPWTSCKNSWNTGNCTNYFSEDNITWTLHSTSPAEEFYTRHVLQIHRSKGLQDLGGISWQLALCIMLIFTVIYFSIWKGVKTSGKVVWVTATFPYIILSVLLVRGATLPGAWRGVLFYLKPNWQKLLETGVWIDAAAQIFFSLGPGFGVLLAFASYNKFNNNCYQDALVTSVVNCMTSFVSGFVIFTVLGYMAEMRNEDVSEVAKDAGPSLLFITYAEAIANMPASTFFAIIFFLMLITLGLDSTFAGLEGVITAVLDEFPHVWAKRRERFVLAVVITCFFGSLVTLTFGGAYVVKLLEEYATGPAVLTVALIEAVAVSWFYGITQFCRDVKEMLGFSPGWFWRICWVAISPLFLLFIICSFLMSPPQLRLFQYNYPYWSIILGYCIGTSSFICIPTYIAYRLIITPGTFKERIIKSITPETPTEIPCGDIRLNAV
T4 sequence (P25103 whole entry): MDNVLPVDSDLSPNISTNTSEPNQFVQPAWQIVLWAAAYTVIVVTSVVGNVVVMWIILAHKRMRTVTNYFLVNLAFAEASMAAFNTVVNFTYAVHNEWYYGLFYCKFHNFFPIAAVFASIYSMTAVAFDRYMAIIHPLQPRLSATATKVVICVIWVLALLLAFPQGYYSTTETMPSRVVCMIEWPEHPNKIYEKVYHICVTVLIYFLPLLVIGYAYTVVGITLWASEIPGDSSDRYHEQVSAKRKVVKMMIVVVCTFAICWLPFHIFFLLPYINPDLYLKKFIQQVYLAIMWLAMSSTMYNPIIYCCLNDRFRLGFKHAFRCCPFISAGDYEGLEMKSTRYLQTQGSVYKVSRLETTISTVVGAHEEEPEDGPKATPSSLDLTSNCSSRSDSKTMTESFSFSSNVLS
T6 sequence (P35367 whole entry): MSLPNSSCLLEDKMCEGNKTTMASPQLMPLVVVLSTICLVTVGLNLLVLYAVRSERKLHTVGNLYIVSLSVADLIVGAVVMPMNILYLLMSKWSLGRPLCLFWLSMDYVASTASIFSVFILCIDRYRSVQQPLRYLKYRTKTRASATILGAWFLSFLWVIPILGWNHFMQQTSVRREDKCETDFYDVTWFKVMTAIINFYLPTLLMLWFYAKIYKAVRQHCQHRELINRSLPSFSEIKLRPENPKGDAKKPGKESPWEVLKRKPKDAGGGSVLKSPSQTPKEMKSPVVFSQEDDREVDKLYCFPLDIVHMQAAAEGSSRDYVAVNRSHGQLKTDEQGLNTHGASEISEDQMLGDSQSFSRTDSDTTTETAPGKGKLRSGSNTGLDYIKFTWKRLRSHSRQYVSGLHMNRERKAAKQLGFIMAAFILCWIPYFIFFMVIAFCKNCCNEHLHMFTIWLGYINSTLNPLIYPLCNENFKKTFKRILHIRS
T8 sequence (P14416 whole entry): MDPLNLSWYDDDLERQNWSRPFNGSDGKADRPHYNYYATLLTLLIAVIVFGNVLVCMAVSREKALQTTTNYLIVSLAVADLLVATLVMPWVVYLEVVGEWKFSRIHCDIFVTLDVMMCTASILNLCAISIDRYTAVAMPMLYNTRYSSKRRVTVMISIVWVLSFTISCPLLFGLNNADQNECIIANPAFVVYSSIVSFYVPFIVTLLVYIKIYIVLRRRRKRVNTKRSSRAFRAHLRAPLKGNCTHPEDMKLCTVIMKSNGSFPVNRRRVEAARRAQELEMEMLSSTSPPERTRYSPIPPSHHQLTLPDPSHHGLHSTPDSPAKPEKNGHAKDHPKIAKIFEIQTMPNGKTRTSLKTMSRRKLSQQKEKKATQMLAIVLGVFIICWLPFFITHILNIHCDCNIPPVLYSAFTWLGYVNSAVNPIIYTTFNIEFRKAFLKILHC
T5 sequence (P32239 whole entry): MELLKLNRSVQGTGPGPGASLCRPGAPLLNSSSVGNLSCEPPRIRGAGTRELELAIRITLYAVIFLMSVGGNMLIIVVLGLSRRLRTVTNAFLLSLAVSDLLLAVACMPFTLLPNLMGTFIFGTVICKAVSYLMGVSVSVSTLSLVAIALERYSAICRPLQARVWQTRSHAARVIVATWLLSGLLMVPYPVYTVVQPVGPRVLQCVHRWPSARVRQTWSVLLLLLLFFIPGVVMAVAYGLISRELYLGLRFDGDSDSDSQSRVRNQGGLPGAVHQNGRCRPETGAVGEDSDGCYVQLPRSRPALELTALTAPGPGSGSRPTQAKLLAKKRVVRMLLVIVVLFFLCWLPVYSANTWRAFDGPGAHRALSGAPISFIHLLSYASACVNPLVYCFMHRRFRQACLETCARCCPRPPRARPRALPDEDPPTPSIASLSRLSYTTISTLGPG
Platelet-activating factor receptor, sequence (P25105 whole entry): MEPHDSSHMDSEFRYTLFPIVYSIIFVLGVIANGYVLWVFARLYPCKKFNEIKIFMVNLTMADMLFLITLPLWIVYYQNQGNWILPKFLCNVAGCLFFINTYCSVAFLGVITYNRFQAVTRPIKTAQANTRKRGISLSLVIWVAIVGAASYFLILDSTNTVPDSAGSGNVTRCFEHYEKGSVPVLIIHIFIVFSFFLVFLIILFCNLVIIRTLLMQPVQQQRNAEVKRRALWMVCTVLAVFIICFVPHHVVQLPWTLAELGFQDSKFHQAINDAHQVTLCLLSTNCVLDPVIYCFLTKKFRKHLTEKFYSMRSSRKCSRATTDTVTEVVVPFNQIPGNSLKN

COc1ccc2c(c1)CC[C@H]2[C@@H](CS)C(=O)N[C@@H](Cc1c[nH]c2ccccc12)C(=O)O gave a Ki [1] of 10 nM, a Ki (Neprilysin [2]) of 24 nM and a Ki [3] of 1.3 nM.

Compound CN(C(=O)c1cc(C(F)(F)F)cc(C(F)(F)F)c1)[C@@H](/C=C/C(=O)NCCN1CCCCC1)Cc1ccc(Cl)cc1 has an IC50 (Substance-K receptor) of 49 nM and an IC50 (Substance-P receptor [4]) of 10 nM.

Compound CN1C(=O)[C@H](NC(=O)Nc2ccc(CC(=O)NCCC(=O)NCCCOc3cccc(CN4CCCCC4)c3)cc2)N=C(c2ccccc2)c2ccccc21 has an IC50 [5] of 136 nM, a Kb (Histamine H2 receptor) of 251 nM and an IC50 [6] of 290 nM.

COc1cc(C(=O)N2CC[C@](CCN3CCC(C(N)=O)(c4ccccc4)CC3)(c3ccc(Cl)c(Cl)c3)C2)cc(OC)c1OC showed an IC50 (Substance-P receptor [7]) of over 10000 nM and an IC50 (Histamine H1 receptor [8]) of 3 nM.

For Cc1ccc2c(OCCN3CCC(Cc4ccc5c(c4)NC(=O)CO5)CC3)cccc2n1, the Ki [9] was 6.31 nM and the “Log Ki” value [10] was under -6.3.

For CN1CCC(=C2c3ccccc3C=Cc3ccccc32)CC1 [CYPROHEPTADINE], the IC50 [11] was over 100000 nM.

Work on CC(C)C[C@H](CC(=O)NO)C(=O)N[C@@H](Cc1ccccc1)C(=O)N[C@@H](C)C=O yielded an IC50 (Procathepsin L) of 25 nM.

c1ccc2c(N3CCNCC3)cccc2c1 gave an IC50 (D(2) dopamine receptor [12]) of over 1000 nM and an IC50 [13] of 62 nM.

Work on C[C@@H]1CN(c2cccc3cc(F)ccc23)CCN1CCC1OCCc2c1sc(C(N)=O)c2Cl (stereo partly drawn) yielded a Ki [14] of over 1000 nM, an IC50 [15] of 2.1 nM and a Ki [16] of 140 nM. It also gave a Ki [17] of 45 nM and a Ki (D(2) dopamine receptor [18]) of 291 nM.

For CN(C)C[C@@H]1C2CCC(CC2)[C@@H]1c1cccc(Cl)c1, the IC50 [15] was 270 nM and the IC50 [19] was 28 nM.

O=C(Nc1cccc(Nc2nccc(-c3cccnc3)n2)c1)c1ccccc1 showed an IC50 [20] of 400 nM.

CN(CCCCc1c[nH]cn1)CCC(c1ccc(Cl)cc1)c1ccccn1 (stereo not drawn) gave a Ki (Histamine H1 receptor [21]) of 7 nM and a Ki (Histamine H3 receptor) of 15 nM.

With COc1cccc2c1CCC[C@H]2CN(C)CCc1ccc2ccoc2c1 the Ki [22] was 144 nM and the Ki [23] was 2 nM.

In the case of COc1ccc(C2(CCN3CCC(C(=O)c4nc5ccccc5n4Cc4ccc(F)cc4)CC3)CCN(C(=O)c3cc(OC)c(OC)c(OC)c3)C2)cc1OC (stereo not drawn), the IC50 (Substance-P receptor [7]) is reported as 31 nM.

With Cc1cncc(CN2CCC(=C3c4ccc(Cl)cc4CCc4cccnc43)CC2)c1 [RUPATADINE] the IC50 [24] was 3700 nM.

Work on O=C(CCc1cc(C(F)(F)F)cc(C(F)(F)F)c1)N(c1ccc(F)cc1)C1CCNCC1 yielded a Ki (Substance-P receptor [25]) of 200 nM and a Ki [9] of 251 nM.

For O=C(O)CCNC(=O)C(CS)Cc1ccccc1 (stereo not drawn), the IC50 (Neprilysin [26]) was 9.4 nM and the IC50 [27] was 32000 nM.

In the case of O=C1Cc2cc(CCN3CCN(c4cccc5ccccc45)CC3)ccc2N1, the IC50 (D(2) dopamine receptor [12]) is reported as 44 nM, the IC50 [13] is reported as 20 nM and the IC50 [28] is reported as 45 nM. It also gave an IC50 [29] of 5 nM.

Compound O=C(N[C@H](CN1CCC(OC2c3ccccc3CCc3ccccc32)CC1)C(=O)O)OCc1ccccc1 has an IC50 [11] of 1550 nM and a Kd (Histamine H1 receptor [30]) of 410 nM.

In the case of CN[C@@H](CCOc1ccc([N+](=O)[O-])cc1)c1ccc(OC(=O)N(C)C)cc1, the IC50 [15] is reported as 42 nM and the IC50 (Acetylcholinesterase) is reported as 101 nM.

With Fc1cc2c(c(OCCNCCCc3c[nH]c4ccc(F)cc34)c1)OCCC2 the Ki [31] was 0.5 nM and the inhibition [32] was 79%.

For CC(=O)N1CCC(=C2c3ccc(Cl)cc3CCc3cccnc32)CC1 [SCH-37370], the IC50 [24] was 840 nM and the IC50 (Histamine H1 receptor [8]) was 100 nM.

With OC(CCc1ccccc1)CN1CCC2(CC1)OCc1c2ccc2ccccc12 (stereo not drawn) the Ki [31] was 10 nM and the bioavailability [33] was 65%.

O=C(N[C@H]1Cc2ccccc2C2CCC[C@H](C(=O)O)N2C1=O)[C@H](S)Cc1ccccc1 (stereo partly drawn) gave an IC50 (Neprilysin [26]) of 0.08 nM and an IC50 [27] of 0.11 nM.

NC(=O)c1ccc2c(c1)CCOC2CCN1CC=C(c2c[nH]c3cc(F)ccc23)CC1 (stereo not drawn) gave an IC50 [15] of 0.11 nM, a Ki [16] of 16 nM and a Ki (D(2) dopamine receptor [18]) of 4.7 nM.
